Results as given in patent US20250092001A1, “NOVEL EXCITATORY AMINO ACID GLUTAMATE TRANSPORT MODULATORS AND METHODS USING THE SAME” (Drexel University, priority 2022, published 2025).
Read-outs that look alike come from different tables or passages of the source.

Experiments:
[1] = test system: R6/2 mice (Huntington disease model); assay: Novel object recognition assay; format: in vivo, mouse; details: 200 mg/kg, versus wild-type treated with vehicle
Experimental: Referring to FIG. 9B, to test for memory impairment a novel object recognition assay was performed. A 44×44 cm square shaped open field arena was used to perform this test at week 12 and week 15. The behavioral evaluation was performed in 2 sets, each set having equal number of animals. The animals were subjected to habituation a day prior to the commencement of test for 5 min followed by familiarization with similar objects for 10 min and tested with different objects for 10 min on the following day. The behavior was recorded under dim light and low noise conditions using an overhead camera. Cumulative duration with both the objects, total object exploration (sec), distance travelled (cm) was quantified using the Noldus ethovision XT 14 software.

[2] = test system: R6/2 mice (Huntington disease model); assay: Open field locomotion test; format: in vivo, mouse; details: 200 mg/kg, versus wild-type treated with vehicle
Experimental: FIG. 9A depicts the results of a locomotion test. In the locomotion test of FIG. 9A, wildtype and R6/2 mice treated with vehicle or different doses of GTS467 (2, 4, and 10 mg/kg) or ceftriaxone (200 mg/kg) were subjected to the open field test to evaluate their locomotor abilities in a 44×44 cm and 43×43 cm square open field arena. Animals were placed individually in the open field arena and behavior was recorded for a period of 5 minutes under dim light and low noise conditions. Animal behavior was recorded using an overhead camera and the distance moved was recorded and quantified using the Noldus ethovision XT-14 software. FIG. 9B depicts the results of a memory task test. Referring to FIG. 9B, to test for memory impairment a novel object recognition assay was performed. A 44×44 cm square shaped open field arena was used to perform this test at week 12 and week 15. The behavioral evaluation was performed in 2 sets, each set having equal number of animals. […] The behavior was recorded under dim light and low noise conditions using an overhead camera. Cumulative duration with both the objects, total object exploration (sec), distance travelled (cm) was quantified using the Noldus ethovision XT 14 software. […]

[3] = test system: Drosophila model of Huntington's Disease (Htt model); assay: Larval locomotion assay in Drosophila Huntington's disease model; format: in vivo; details: third instar larvae; concentrations as low as two-fold below EC50 and one-fold below EC50
From the text: FIG. 6A illustrate certain aspects of a locomotion assay used to assay the locomotive activities. […] FIGS. 6B and 6C depict the results of the locomotion assay results of wild-type Drosophila (“WT”), as well as Drosophila of a Huntington's disease model treated with vehicle (“Veh”) or with various concentrations of two exemplary GLT-1 modulators. […] The Drosophila Htt model is produced by crossing UAS-Htt([…]) male flies with elav-Gal4 virgin female flies. Both fly strains were purchased from Bloomington Drosophila Stock Center (BDSC, Indiana, USA). […] Locomotion assays were conducted by transferring the third instar larvae of flies to agar plates (FIG. 6A) and counting the number of grid lines crossed in 30 seconds.

[4] = test system: Drosophila model of Huntington's disease; assay: Larval olfactory associative learning test; format: in vivo; details: Elav x Htt larvae; 3.53 nM GT467, […] GT511
Experimental: FIG. 7A illustrates certain aspects of a larval olfactory associative learning used to test learning and memory. In FIG. 7A, larvae were trained with either a reinforcer solution containing sucrose (“LIN/SUC”) or a control of distilled water (“LIN/DW”). The trained larvae were then transferred to a dish having test odorant placed on one side and a control on the opposite side. […] The ΔRI (difference between LIN/SUC and LIN/DW performance scores) were then calculated for the high performers (FIG. 7B), low performers (FIG. 7C) and non-performers (FIG. 7D). […] Referring to FIG. 7A, Drosophila larvae were trained with either a reinforcer solution containing sucrose (“LIN/SUC”) or a control of distilled water (“LIN/DW”). The trained larvae were then transferred to a dish having test odorant placed on one side and a control on the opposite side. The ΔRI were then calculated for the high performers (FIG. 7B), low performers (FIG. 7C) and non-performers (FIG. 7D).

[5] = Pharmacokinetics of GT467 and GT511 in rats, plasma and brain (IV, IP, PO); format: in vivo, rat; details: for AUC0-t: 0 to 24 hrs
Experimental: Pharmacokinetics (PK) study for GT951 was conducted at Melior Discovery Services (Exton, PA). Fifteen male CD-1 mice 23-50 g was used for the study and the mice were housed 3 per cage. PK studies for GT467 and GT511 were conducted at Piramal Pharma solutions under approved protocols (Pune, India). One hundred and sixty-eight male Wistar rats were used for the study and housed 4 per cage. All animals were maintained on a standard 12 h light cycle and given free access to water and standard rodent chow. Food and water were available ad libitum. Animals were not fasted for any portion of the study and animals were acclimated to the animal care facility for seven days prior to the start of the experiment. The holding room and procedure room temperature was 21-23° C. and humidity was at 40-45% during the experiment (within the normal range of the care facility). All procedures were completed according to Institutional Animal Care and Use Committee (IACUC) approved protocols for housing and for PK studies.
Rats were dosed with the drug and blood and brain samples were collected at 0.5, 1, 2, 4, 8 and 24 h time points. Blood was collected via the sub-lingual vein under anesthesia into tubes containing Na2EDTA as an anticoagulant. Plasma fraction was separated by centrifuging the samples at 10,000 rpm for 5 min and the plasma was transferred to a cryo tube and stored at −80 C. Animals were euthanized and the brain was rapidly removed on ice and weighed. Brain was homogenized in Milli Q water and the homogenate was stored at −80 C until further use. Bioanalysis of the samples was performed using the SCIEX QTRAP 5500 LCMS/MS system with Phenomenex synergy C18 column and carbamazepine as internal standard. A methanol extraction procedure was used to precipitate the proteins in the sample. In addition to the internal standards, drug free plasma and brain samples were prepared for calibration and quantification standards. All samples were within the detectable range of the standard curves. 50 μl of the sample was added to 200 μl of the working solution of the internal standard and centrifuged for 5 min at 10,000 rpm. 60 μl of the supernatant was added to 140 μl of water and mixed well prior to transferring them for quantitative analysis on LCMS.
Specifically, rats were administered with GT467 or GT511 intraperitoneally (IP), intravenously (IV) or orally (PO). The concentration of the administered compounds measured at various timepoints in the plasma are depicted in FIGS. 4A and 4B, the concentrations of the administered compounds measured at various timepoints in the brain are depicted in FIGS. 5A and 5B.
Furthermore, pharmacokinetic parameters such as the peak concentration (Cmax), the time to reach the peak concentration (Tmax), the area under curve from time 0 to T (i.e., 24 hrs) (AUC0-t), the area under curve from time 0 to infinite (AUC0-∞), the half-life (t1/2), the oral clearance (CL/F), the volume of distribution of drug observed (Vz_F_obs), and the percentage of bioavailability (% Bioavailability) were also measured or calculated.

[6] = test system: Drosophila model of Huntington's disease; assay: Longevity assay; format: in vivo; details: Huntington's disease model flies; up to about day 40
Experimental: The longevity assay was performed according to Romero et al., Neuron, 57(1), 27-40 and Linford et al., JoVE (Journal of Visualized Experiments), (71). Briefly, 100 adult flies from wild type and HTT phenotype (male and female) were collected in each designated tube and fed with food containing the specific concentration of drug. Every 2-3 days the flies were moved into new vials with fresh food and drug. Dead flies were removed and the number of flies alive during each change is noted. The tunes were maintained until the last available fly and the data was plotted as a survival curve. FIG. 8A illustrates certain aspects of a longevity assay. FIG. 8B depicts the results of the longevity assay. […] The survival rates of the flies were recorded over time.

[7] = male, Wistar, rat plasma, IP 10 mg/kg
[8] = male, Wistar, rat plasma, IV 5 mg/kg
[9] = male, Wistar, rat plasma, PO 10 mg/kg

## CO/N=C(\C(=O)N[C@@H]1C(=O)N2C(C(=O)O)=C(CSc3nc(=O)c(=O)[nH]n3C)CS[C@H]12)c1csc(N)n1 [ceftriaxone, (6R,7R)-7-{[(2Z)-2-(2-amino-1,3-thiazol-4-yl)->2-(methoxyimino)acetyl]amino}-3-{[(2-methyl-5,6-dioxo-1,2,5,6-tetrahydro-1,2,4-triazin-3-yl)thio]methyl}-8-oxo-5-thia-1-azabicyclo[4.2.0]oct-2-ene-2-carboxylic acid, reference compound]
[1]
  Recognition index: scored significantly lower in recognition index
[2]
  Distance moved: move significantly shorter distances

## COc1ccc(NC(=O)C(=O)N2CCN(c3ccccc3)CC2)cc1 [GT511, N-(4-methoxyphenyl)-2-oxo-2-(4-phenylpiperazin-1-yl)acetamide]
[3]
  Locomotor ability (grid lines crossed in 30 seconds): restores the Huntington's disease model flies' locomotor ability
[4]
  Olfactory learning performance (ΔRI): improved significantly
[5]; [7]
  AUC(0-inf): 1130 ng·h/mL
  Cmax: 450 ng/mL
[5]; male, Wistar, rat plasma, IP 10 mg/kg, read-out: AUC0-t
  AUC0-t: 1070 ng·h/mL
[5]; male, Wistar, rat plasma, IP 10 mg/kg, read-out: CL/F (converted)
  CL/F: 149 mL/min/kg
[5]; [8]
  AUC(0-inf): 995 ng·h/mL
  Cmax: 567 ng/mL
[5]; male, Wistar, rat plasma, IV 5 mg/kg, read-out: AUC0-t
  AUC0-t: 919 ng·h/mL
[5]; [9]
  AUC(0-inf): 399 ng·h/mL
  Cmax: 42.9 ng/mL
[5]; male, Wistar, rat plasma, PO 10 mg/kg, read-out: AUC0-t
  AUC0-t: 322 ng·h/mL
[5]; male, Wistar, rat plasma, PO 10 mg/kg, read-out: CL/F (converted)
  CL/F: 505 mL/min/kg
[5]; rat brain, IP 10 mg/kg
  AUC0-∞: 467.11 ng·h/g
  Tmax: 0.50 h
  t1/2: 2.26 h
  AUC0-t: 429.85 ng·h/g
[5]; rat brain, IV 5 mg/kg
  AUC0-∞: 483.13 ng·h/g
  Tmax: 0.50 h
  t1/2: 1.52 h
  AUC0-t: 443.23 ng·h/g
[5]; rat brain, PO 10 mg/kg
  Tmax: 1.38 h
  AUC0-t: 183.00 ng·h/g
[5]; rat plasma, IP 10 mg/kg
  % Bioavailability: 58.36%
  Tmax: 0.63 h
  Vz_F_obs: 79.2212 L/kg
  t1/2: 6.22 h
[5]; rat plasma, IV 5 mg/kg
  CL/F: 86.3097 mL/min/kg
  Tmax: 0.50 h
  Vz_F_obs: 41.46389 L/kg
  t1/2: 6.08 h
[5]; rat plasma, PO 10 mg/kg
  % Bioavailability: 17.51%
  Tmax: 3.25 h
  Vz_F_obs: 198.88289 L/kg
  t1/2: 5.34 h
[5]; rats, IP, IV, PO
  Plasma concentration and brain concentration by route of administration: higher plasma concentration and brain concentration than oral administration
[6]
  Survival rate: significantly improved the survival rate
